Paper PMC9905048 (Bioorganic & Medicinal Chemistry Letters, 2023)
Like-named read-outs stand apart in the source and are kept apart here.

Experiments:
[1] = system: cells of the SARS-CoV-2, Flu A/B and DENV-2 assays
[2] = system: DENV-2 replicon BHK-21 (DENV2-BHK) cells; assay type: cell-based
[3] = system: SARS-CoV-2 (hCoV-19/Korea/KCDC-06/2020); experiment: Cell-based antiviral assay against SARS-CoV-2 in Vero cells; conditions: ratio of EC50, in vitro
[4] = system: Flu B/Lee/40 (Lee); experiment: Cell-based antiviral assay against Flu B in MDCK cells; parameters: species or system influenza B virus
[5] = in vitro, summary for SARS-CoV-2, Flu A/B and DENV-2 assays

Cl.NNc1ccn([C@@H]2O[C@H](CO)[C@@H](O)[C@H]2O)c(=O)n1 [compound 9, N ^4-aminocytidine] was tested, and the cell cytotoxicity ([1]; African green monkey (Vero), hamster (BHK-21), dog (MDCK)) was over 100 µM.
CC(C)(C)OC(=O)NNc1ccn([C@@H]2O[C@H](CO)[C@@H](O)[C@H]2O)c(=O)n1 [8b, C4-Boc-hyrazinyl cytidine] gave a cell cytotoxicity [1, 5] of over 100 µM.
C4-2‑hydroxylethyl cytidine [8c] gave a cell cytotoxicity [1, 5] of over 100 µM.
In the case of CC(C)C(=O)ONc1ccn([C@@H]2O[C@H](CO)[C@@H](O)[C@H]2O)c(=O)n1 [8a, β-D-N^4-O-isobutyrylcytidine], the “potency (EC50) against DENV-2 compared with T-705 and amantadine (AMT)” value [2] is reported as “about 2 fold”, the “potency against SARS-CoV-2 compared to NHC (1)” value [3] is reported as over 5 fold and the “potency (EC50) against Flu B compared with T-705 and amantadine (AMT)” value [4] is reported as “about 2 fold”.
